Here are results for 34 compounds from US20100317524A1, “Sulfonylureas” (Bayer CropScience AG, priority 2005, published 2010).

Assay [1] has as its system weed plants such as Sinapis alba, Echinochloa crus-galli, Lolium multiflorum, Chrysanthemum segetum, Setaria viridis, Abutilon theophrasti, Amaranthus …. In words: Post-emergence effect on weeds (greenhouse pot test, visual scoring). Type of assay: in vivo. To be noted: applied post-emergence (three-leaf stage) at a rate of 0.3 kg or less of active substance per hectare; visual scoring after about 3 to 4 weeks vs untreated controls. As to the method: Seeds or sections of rhizome from monocot and dicot broadleaf weeds were laid out in sandy loam soil in plastic pots, covered with earth, and cultivated in a greenhouse under good growth conditions. Three weeks after sowing, the test plants were treated at the three-leaf stage. The compounds of the invention, formulated as wettable powders or as emulsion concentrates, were sprayed in different dosages onto the green parts of the plants, at an application rate of 600 to 800 l of water per hectare (converted). After the test plants had stood in the greenhouse under optimum growth conditions for a period of about 3 to 4 weeks, the effect of the products was scored visually in comparison to untreated controls.

Assay [2] concerns weed plants such as Sinapis alba, Chrysanthemum segetum, Avena sativa, Stellaria media, Echinochloa crus-galli, Lolium multiflorum, Setaria viridis, Abutilon …. In words: Pre-emergence effect on weeds (greenhouse pot test, visual scoring). Type of assay: in vivo. To be noted: applied pre-emergence at a rate of 0.3 kg or less of active substance per hectare; visual scoring after 3 to 4 weeks vs untreated controls. An excerpt:
Seeds or sections of rhizome from monocot and dicot weed plants were laid out in sandy loam soil in cardboard pots, and covered with soil. The compounds of the invention, formulated as wettable powders or emulsifiable concentrates, were then applied, in the form of aqueous suspensions or emulsions, at various dosages, onto the surface of the covering earth, at an application rate of 600 to 800 l of water per hectare (converted). Following the treatment, the pots were placed in a greenhouse and maintained under good growth conditions for the weeds. Visual scoring of the plant damage or emergence damage was made when the test plants had emerged, after a test time of 3 to 4 weeks, in comparison to untreated controls.

For the compound `COc1cc(OC)nc(NC(=O)NS(=O)(=O)c2c(I)cccc2OCC(C)C)n1` [Compound 1.197], the “herbicidal action against weed plants, post-emergence” value (“herbicidal action … post-emergence” for short) in assay [1] is “very good herbicidal action”. For the same compound, the “herbicidal action against weed plants, pre-emergence” value (“herbicidal action … pre-emergence” for short) in assay [2] is reported as “very good herbicidal action”.

Take `COc1cc(OC)nc(NC(=O)NS(=O)(=O)c2c(I)cccc2OCC2CC2)n1` [Compound 1.229]: the “herbicidal action … post-emergence” value in assay [1] is recorded as “very good herbicidal action”. Moreover, the “herbicidal action … pre-emergence” value in assay [2] is “very good herbicidal action”.

As to `COc1nc(C)nc(NC(=O)NS(=O)(=O)c2c(I)cccc2OCC2CC2)n1` [Compound 1.233], the “herbicidal action … post-emergence” value in assay [1] is “very good herbicidal action”. The “herbicidal action … pre-emergence” value in assay [2] is on record as “very good herbicidal action”.

As to `Cc1cc(C)nc(NC(=O)NS(=O)(=O)c2c(I)cccc2OCC2CC2)n1` [Compound 1.237], the “herbicidal action … post-emergence” value in assay [1] is listed as “very good herbicidal action”. The “herbicidal action … pre-emergence” value in assay [2] is listed as “very good herbicidal action”.

As to `COc1cc(Cl)nc(NC(=O)NS(=O)(=O)c2c(I)cccc2OCC2CC2)n1` [Compound 1.238], the “herbicidal action … post-emergence” value in assay [1] is “very good herbicidal action”. In addition, in assay [2], the “herbicidal action … pre-emergence” value is given as “very good herbicidal action”.

On to `COc1nc(NC(=O)NS(=O)(=O)c2c(I)cccc2OCC2CC2)nc(OC)n1` [Compound 1.242], for which the “herbicidal action … post-emergence” value in assay [1] is on record as “very good herbicidal action”. The “herbicidal action … pre-emergence” value in assay [2] is listed as “very good herbicidal action”.

Regarding `COc1cc(OC)nc(NC(=O)NS(=O)(=O)c2c(I)cccc2OC(F)(F)F)n1` [Compound 1.302], the “herbicidal action … post-emergence” value in assay [1] is given as “very good herbicidal action”. Further, the “herbicidal action … pre-emergence” value in assay [2] is “very good herbicidal action”.

As for `COc1nc(C)nc(NC(=O)NS(=O)(=O)c2c(I)cccc2OC(F)(F)F)n1` [Compound 1.306], in assay [1], the “herbicidal action … post-emergence” value is recorded as “very good herbicidal action”. Moreover, in assay [2], the “herbicidal action … pre-emergence” value is recorded as “very good herbicidal action”.

Consider `Cc1cc(C)nc(NC(=O)NS(=O)(=O)c2c(I)cccc2OC(F)(F)F)n1` [Compound 1.310], for which, in assay [1], the “herbicidal action … post-emergence” value is “very good herbicidal action”. The “herbicidal action … pre-emergence” value in assay [2] is on record as “very good herbicidal action”.

On to `COc1cc(Cl)nc(NC(=O)NS(=O)(=O)c2c(I)cccc2OC(F)(F)F)n1` [Compound 1.311], for which the “herbicidal action … post-emergence” value in assay [1] is “very good herbicidal action”. In assay [2], the “herbicidal action … pre-emergence” value is reported as “very good herbicidal action”.

With `COc1nc(NC(=O)NS(=O)(=O)c2c(I)cccc2OC(F)(F)F)nc(OC)n1` [Compound 1.315], in assay [1], the “herbicidal action … post-emergence” value was “very good herbicidal action”. Also, in assay [2], the “herbicidal action … pre-emergence” value is on record as “very good herbicidal action”.

On to `COc1cc(OC)nc(NC(=O)NS(=O)(=O)c2c(I)cccc2OC(F)F)n1` [Compound 1.321], for which the “herbicidal action … post-emergence” value in assay [1] was “very good herbicidal action”. Moreover, the “herbicidal action … pre-emergence” value in assay [2] is “very good herbicidal action”.

Take `COc1nc(C)nc(NC(=O)NS(=O)(=O)c2c(I)cccc2OC(F)F)n1` [Compound 1.325]: the “herbicidal action … post-emergence” value in assay [1] was “very good herbicidal action”. For the same compound, the “herbicidal action … pre-emergence” value in assay [2] is on record as “very good herbicidal action”.

Consider `Cc1cc(C)nc(NC(=O)NS(=O)(=O)c2c(I)cccc2OC(F)F)n1` [Compound 1.329], for which the “herbicidal action … post-emergence” value in assay [1] is on record as “very good herbicidal action”. In addition, the “herbicidal action … pre-emergence” value in assay [2] was “very good herbicidal action”.

In the case of `COc1cc(Cl)nc(NC(=O)NS(=O)(=O)c2c(I)cccc2OC(F)F)n1` [Compound 1.330], the “herbicidal action … post-emergence” value in assay [1] is recorded as “very good herbicidal action”. Also, in assay [2], the “herbicidal action … pre-emergence” value is “very good herbicidal action”.

For the compound `COc1nc(C)nc(NC(=O)NS(=O)(=O)c2c(I)cccc2OCC(F)(F)F)n1` [Compound 1.342], the “herbicidal action … post-emergence” value in assay [1] is on record as “very good herbicidal action”. The “herbicidal action … pre-emergence” value in assay [2] is listed as “very good herbicidal action”.

For `Cc1cc(C)nc(NC(=O)NS(=O)(=O)c2c(I)cccc2OCC(F)(F)F)n1` [Compound 1.343], the “herbicidal action … post-emergence” value in assay [1] is reported as “very good herbicidal action”. For the same compound, the “herbicidal action … pre-emergence” value in assay [2] is recorded as “very good herbicidal action”.

For the compound `COc1cc(Cl)nc(NC(=O)NS(=O)(=O)c2c(I)cccc2OCC(F)(F)F)n1` [Compound 1.344], the “herbicidal action … post-emergence” value in assay [1] is “very good herbicidal action”. Further, the “herbicidal action … pre-emergence” value in assay [2] was “very good herbicidal action”.

For `COc1nc(C)nc(NC(=O)NS(=O)(=O)c2c(I)cccc2OCC(F)F)n1` [Compound 1.352], the “herbicidal action … post-emergence” value in assay [1] is on record as “very good herbicidal action”. Also, the “herbicidal action … pre-emergence” value in assay [2] is “very good herbicidal action”.

Consider `Cc1cc(C)nc(NC(=O)NS(=O)(=O)c2c(I)cccc2OCC(F)F)n1` [Compound 1.353], for which the “herbicidal action … post-emergence” value in assay [1] is “very good herbicidal action”. Besides, the “herbicidal action … pre-emergence” value in assay [2] is “very good herbicidal action”.

On to `COc1cc(Cl)nc(NC(=O)NS(=O)(=O)c2c(I)cccc2OCC(F)F)n1` [Compound 1.354], for which the “herbicidal action … post-emergence” value in assay [1] is recorded as “very good herbicidal action”. In addition, the “herbicidal action … pre-emergence” value in assay [2] is “very good herbicidal action”.

For `COc1nc(NC(=O)NS(=O)(=O)c2c(I)cccc2OCC(F)F)nc(OC)n1` [Compound 1.355], the “herbicidal action … post-emergence” value in assay [1] is listed as “very good herbicidal action”. Moreover, the “herbicidal action … pre-emergence” value in assay [2] is “very good herbicidal action”.

With `COc1cc(OC)nc(NC(=O)NS(=O)(=O)c2c(I)cccc2OC(C)C(F)(F)F)n1` (centres unmarked) [Compound 1.362], the “herbicidal action … post-emergence” value in assay [1] is “very good herbicidal action”. In addition, in assay [2], the “herbicidal action … pre-emergence” value is on record as “very good herbicidal action”.

`COc1nc(C)nc(NC(=O)NS(=O)(=O)c2c(I)cccc2OC(C)C(F)(F)F)n1` (centres unmarked) [Compound 1.363]: in assay [1], the “herbicidal action … post-emergence” value is “very good herbicidal action”. Moreover, the “herbicidal action … pre-emergence” value in assay [2] is listed as “very good herbicidal action”.

As for `Cc1cc(C)nc(NC(=O)NS(=O)(=O)c2c(I)cccc2OC(C)C(F)(F)F)n1` (centres unmarked) [Compound 1.364], the “herbicidal action … post-emergence” value in assay [1] was “very good herbicidal action”. Moreover, the “herbicidal action … pre-emergence” value in assay [2] is on record as “very good herbicidal action”.

Consider `COc1cc(Cl)nc(NC(=O)NS(=O)(=O)c2c(I)cccc2OC(C)C(F)(F)F)n1` (centres unmarked) [Compound 1.365], for which, in assay [1], the “herbicidal action … post-emergence” value was “very good herbicidal action”. For the same compound, in assay [2], the “herbicidal action … pre-emergence” value is listed as “very good herbicidal action”.

On to `COc1nc(NC(=O)NS(=O)(=O)c2c(I)cccc2OC(C)C(F)(F)F)nc(OC)n1` (centres unmarked) [Compound 1.366], for which, in assay [1], the “herbicidal action … post-emergence” value is reported as “very good herbicidal action”. Besides, the “herbicidal action … pre-emergence” value in assay [2] is on record as “very good herbicidal action”.

On to `COc1nc(C)nc(NC(=O)NS(=O)(=O)c2c(I)cccc2OCC(F)(F)C(F)(F)F)n1` [Compound 1.370], for which, in assay [1], the “herbicidal action … post-emergence” value is given as “very good herbicidal action”. For the same compound, the “herbicidal action … pre-emergence” value in assay [2] is “very good herbicidal action”.

Turning to `Cc1cc(C)nc(NC(=O)NS(=O)(=O)c2c(I)cccc2OCC(F)(F)C(F)(F)F)n1` [Compound 1.371], the “herbicidal action … post-emergence” value in assay [1] is on record as “very good herbicidal action”. The “herbicidal action … pre-emergence” value in assay [2] is “very good herbicidal action”.

With `COc1cc(Cl)nc(NC(=O)NS(=O)(=O)c2c(I)cccc2OCC(F)(F)C(F)(F)F)n1` [Compound 1.372], in assay [1], the “herbicidal action … post-emergence” value is “very good herbicidal action”. In addition, the “herbicidal action … pre-emergence” value in assay [2] is given as “very good herbicidal action”.

In the case of `COc1nc(NC(=O)NS(=O)(=O)c2c(I)cccc2OCC(F)(F)C(F)(F)F)nc(OC)n1` [Compound 1.373], the “herbicidal action … post-emergence” value in assay [1] was “very good herbicidal action”. Further, the “herbicidal action … pre-emergence” value in assay [2] was “very good herbicidal action”.

In the case of `COc1cc(OC)nc(NC(=O)NS(=O)(=O)c2c(I)cccc2SC)n1` [Compound 1.389], the “herbicidal action … post-emergence” value in assay [1] is given as “very good herbicidal action”. For the same compound, the “herbicidal action … pre-emergence” value in assay [2] is listed as “very good herbicidal action”.

In the case of `COc1nc(C)nc(NC(=O)NS(=O)(=O)c2c(I)cccc2SC)n1` [Compound 1.390], the “herbicidal action … post-emergence” value in assay [1] is on record as “very good herbicidal action”. In assay [2], the “herbicidal action … pre-emergence” value is “very good herbicidal action”.

On to `COc1cc(OC)nc(NC(=O)NS(=O)(=O)c2c(I)cccc2OS(C)(=O)=O)n1` [Compound 1.463], for which the “herbicidal action … post-emergence” value in assay [1] is “very good herbicidal action”. For the same compound, the “herbicidal action … pre-emergence” value in assay [2] is recorded as “very good herbicidal action”.
